Article PMC12073402, “A Selective MAP3K1 Inhibitor Facilitates Discovery of NPM1 as a Member of the Network” (Molecules, 2025)

Key:
[1] = test system: TNF-α–induced MAP3K1-IKKβ–mediated NF-κB transcription; assay: NF-κB luciferase reporter assay in HeLa cells; type: cell-based; details: 20, 10, 5 μM, TNF-α 20 ng/mL, 6 h
Description: MAP3K1 was previously shown to phosphorylate IKKβ [12] and regulate NF-κB signaling. Therefore, we validated the ability of 51-106 to inhibit MAP3K1 by probing the phosphorylation status of the known substrate, IKKβ, using an AlphaLISA assay. The pancreatic cancer cells (MiaPaCa2) were subjected to a 30-min pretreatment with varying concentrations of 51-106, followed by TNFα stimulation to induce IKKβ phosphorylation. Following a 15-min stimulation, the levels of phospho-IKKβ and total IKKβ were quantified. […] (Figure 3A). Next, we evaluated the efficacy of 51-106 in a cell-based reporter assay utilizing a HeLa cell line that specifically responds to TNFα induced expression of a luciferase reporter gene that is under the control of an NF-κB response element.
A suspension of HeLa-NFkB-Luc cells (Cat# SL-0001; Signosis; Santa Clara, CA, USA) (2 × 10^4/well) in 80 μL media was plated in white-walled, flat, clear-bottomed, sterile, 96-well tissue culture plates (Cat# 3610; Corning). The cells were allowed to adhere overnight in a humidified 5% CO2 incubator at 37 °C. […] Post stimulation addition (6 h), fluorescence (Ex 560, Em 590) was measured on the plate reader to assess cell viability. […] Luminescence (1000 ms) was measured on the plate reader set to the kinetic mode of acquisition for 15 min. The luminescence data were normalized to the AlamarBlue values. […]

[2] = test system: NPM1 T199 phosphorylation; assay: Western blot of NPM1 T199 phosphorylation in PANC-1 cells; type: cell-based; details: 2 h
Description: We further investigated changes in NPM1 phosphorylation in our dataset. Of the NPM1 phosphorylation sites quantified, four sites had significant dose-dependent decreases upon 51-106 treatment: S137, T199, S222, and S227. Only one of these phosphorylation sites, T199, has a commercially available antibody. Importantly, T199 phosphorylation plays an essential role in NPM1 function, as it is required for localization of NPM1 to sites of DNA double-stranded breaks, where it colocalizes with other DNA repair proteins such as γH2AX and RAD51 [38].
Cells were washed with cold 1× PBS and lysed in Radioimmunoprecipitation assay (RIPA) buffer (Cat# 89901; Thermo Fisher Scientific), sodium orthovanadate (Na3VO4) (Cat# 567540-5GM; Sigma-Aldrich; St. Louis, MO, USA), sodium fluoride (NaF) (Cat# 201154-5G, >99% purity; Sigma-Aldrich), β-glycerophosphate (Cat# G9422-10G; Sigma-Aldrich), and 1 mM phenylmethylsulfonyl fluoride (Cat# 10837091001; Sigma Aldrich). The samples were incubated on ice for 30 min, vortexed at 10 min intervals, and centrifuged at 14,000× g for 10 min at 4 °C. The supernatant was collected, and protein was quantified using the BCA Protein Assay kit (Cat# 23225; Thermo Fisher Scientific). […]

Cn1cc(-c2cnc3ccc(NC(=O)Nc4ccc(F)c(C(F)(F)F)c4)cc3n2)cn1 [51-106, 1-(4-Fluoro-3-(trifluoromethyl)phenyl)-3-(3-(1-methyl-1H-pyrazol-4-yl)quinoxalin-6-yl)urea]
TNF-α–induced NF-κB transcription (luciferase reporter) [1]: dose-dependent inhibition | NPM1 T199 phosphorylation (Western blot) [2]: Decreased phosphorylation in NPM1 T199
